From patent US4582823A, “Method for treating schizophrenia and medicaments therefor” (Warner-Lambert Company, priority 1984, dated 1986)
“Also recorded” adds a separate entry of the source. Where two headings read alike, the source gives them in different places.

Tests used:
[1] = tested on: Sprague-Dawley male rats; assay: rat locomotor activity (darkened actophotometer, 30 minutes); type: in vivo; details: for Locomotor Activity, % Of Control ± SEM: 1 hr before test
Experimental: Sprague-Dawley male rats were used.
Each animal was then placed in a darkened actophotometer and locomotor activity was recorded automatically by a microcomputer for 30 minutes. Locomotor activity data were compared to the mean response of vehicle treated control and were expressed as percentage of activity relative to control.

[2] = tested on: haloperidol-induced dystonia in Cebus monkeys; details: for # showing dystonia/Total: time 0
Experimental: (§1) On test days, animals were given N^6 -(2,2-diphenylethyl)adenosine before or after haloperidol. Drugs were prepared as suspensions in 0.2% Methocel for oral and IP injection. Solutions for IM injections of haloperidol were made using lactic acid and of the adenosine using ethanol.

[3] = tested on: haloperidol-induced dystonia in Cebus monkeys; assay: Effect of N^6-(2,2-diphenylethyl)adenosine and haloperidol given together orally (capsule or gavage) on dystonia in Cebus monkeys; details: for # showing dystonia/Total: haloperidol 0.5 PO capsule, time 0
Experimental: as §1

[4] = tested on: haloperidol-induced dystonia in Cebus monkeys; assay: Attempted reversal of haloperidol-induced dystonia in sensitized Cebus monkeys; type: in vivo, Cebus monkeys (Cebus appella); details: for # Reversed/Total: adenosine 8 mpk IM
Experimental: as §1

For `O=C(CCCN1CCC(O)(c2ccc(Cl)cc2)CC1)c1ccc(F)cc1` [Haloperidol, reference compound], the “Locomotor Activity, % Of Control ± SEM” value ([1]; oral, Vehicle 5 ml/kg + HPD 0.1 mg/kg, n=8 (run with 3 mg/kg adenosine)) was 80.4 ± 10.2 % Of Control, the “Locomotor Activity, % Of Control ± SEM” value ([1]; oral, Vehicle 5 ml/kg + HPD 0.1 mg/kg, n=9 (run with 1 mg/kg adenosine)) was 108.6 ± 8.6 % Of Control and the “Locomotor Activity, % Of Control ± SEM” value ([1]; oral, Vehicle 5 ml/kg + HPD 0.3 mg/kg, n=9 (run with 1 mg/kg adenosine)) was 46.0 ± 7.2 % Of Control. The “Locomotor Activity, % Of Control ± SEM” value ([1]; oral, Vehicle 5 ml/kg + HPD 0.3 mg/kg, n=17 (run with 3 mg/kg adenosine)) was 44.0 ± 4.5 % Of Control, the “Locomotor Activity, % Of Control ± SEM” value ([1]; oral, Vehicle 5 ml/kg + HPD 1.0 mg/kg, n=9 (run with 1 mg/kg adenosine)) was 21.8 ± 2.9 % Of Control and the “Locomotor Activity, % Of Control ± SEM” value ([1]; oral, Vehicle 5 ml/kg + HPD 1.0 mg/kg, n=17 (run with 3 mg/kg adenosine)) was 18.0 ± 2.5 % Of Control. The “Locomotor Activity, % Of Control ± SEM” value ([1]; oral, Vehicle 5 ml/kg + HPD 3.0 mg/kg, n=9 (run with 3 mg/kg adenosine)) was 8.2 ± 2.1 % Of Control, the “dystonic reactions in sensitized monkeys” value ([2]; Cebus monkey, haloperidol 0.2 mpk PO) was “dystonic reactions were consistently manifest” and the “# showing dystonia/Total” value ([2]; adenosine 0 mpk IP, haloperidol 0.05 mpk IM, +30 Min.) was 5/5. For the same compound, the “onset of action (dystonia)” value ([2]; monkey, in vivo) was 3 to 7 min, the “onset of action (dystonia)” value ([2]; monkey, in vivo, po) was 60 to 180 min and the monkeys with dystonia ([3]; haloperidol alone 0.5 mg/kg in a capsule) was 5 of 5. For the same compound, the “# showing dystonia/Total” value ([3]; no adenosine) was 5/5.

With `OC[C@H]1O[C@@H](n2cnc3c(NCC(c4ccccc4)c4ccccc4)ncnc32)[C@H](O)[C@@H]1O` [N^6-(2,2-Diphenylethyl)adenosine] the “effect on haloperidol induced inhibition of rat locomotor activity (conclusion)” value ([1]; combination with haloperidol) was “enhanced haloperidol induced inhibition of rat locomotor activity; also recorded: additive effect in combination with haloperidol”, the “Locomotor Activity, % Of Control ± SEM” value ([1]; oral, adenosine 1 mg/kg + HPD 0.1 mg/kg, n=9) was 92.0 ± 2.8 % Of Control and the “Locomotor Activity, % Of Control ± SEM” value ([1]; oral, adenosine 1 mg/kg + HPD 0.3 mg/kg, n=9) was 40.7 ± 4.9 % Of Control. The “Locomotor Activity, % Of Control ± SEM” value ([1]; oral, adenosine 1 mg/kg + HPD 1.0 mg/kg, n=9) was 10.8 ± 2.6 % Of Control, the “Locomotor Activity, % Of Control ± SEM” value ([1]; oral, adenosine 1 mg/kg + Vehicle 5 ml/kg, n=9) was 93.8 ± 8.9 % Of Control and the “Locomotor Activity, % Of Control ± SEM” value ([1]; oral, adenosine 3 mg/kg + HPD 0.1 mg/kg, n=8) was 49.1 ± 10.0 % Of Control. The “Locomotor Activity, % Of Control ± SEM” value ([1]; oral, adenosine 3 mg/kg + HPD 0.3 mg/kg, n=17) was 21.6 ± 5.0 % Of Control, the “Locomotor Activity, % Of Control ± SEM” value ([1]; oral, adenosine 3 mg/kg + HPD 1.0 mg/kg, n=17) was 9.8 ± 2.1 % Of Control and the “Locomotor Activity, % Of Control ± SEM” value ([1]; oral, adenosine 3 mg/kg + HPD 3.0 mg/kg, n=9) was 4.3 ± 1.3 % Of Control. The “Locomotor Activity, % Of Control ± SEM” value ([1]; oral, adenosine 3 mg/kg + Vehicle 5 ml/kg, n=17) was 58.7 ± 5.2 % Of Control, the “alteration of haloperidol-induced inhibition of spontaneous locomotion” value ([1]; oral, adenosine 1.0 mg/kg + haloperidol) was “did not significantly alter the dose-related inhibition of spontaneous locomotion caused by haloperidol” and the “enhancement of haloperidol locomotor inhibition” value ([1]; oral, adenosine 3.0 mg/kg + haloperidol 0.1 and 0.3 mg/kg) was “enhanced the locomotor inhibition”. The alteration of locomotion ([1]; oral, adenosine alone 1.0 mg/kg) was “did not significantly alter locomotion”, the reduction of locomotion ([1]; oral, adenosine alone 3.0 mg/kg) was 50% and the “effect on severity of established dystonia” value ([4]; Cebus monkey, adenosine 8 mpk IM after dystonias induced by haloperidol (IM or PO)) was “no effect on the severity of dystonia”. For the same compound, the “reversal of ongoing dystonia (conclusion)” value ([4]; Cebus monkey, adenosine IM) was “did not reverse ongoing dystonia induced by haloperidol”, the “# Reversed/Total” value ([4]; +30 Min. after haloperidol 0.05 IM) was 0/6 and the “# Reversed/Total” value ([4]; +90 Min. after haloperidol 0.5 PO) was 0/6. For the same compound, the “animals in which haloperidol-induced dystonia was not blocked” value ([2]; Cebus monkey, adenosine 8 mg/kg IM, haloperidol 0.5 mg/kg PO) was 3/6, the “blocking of haloperidol-induced dystonia by IM route (in words)” value ([2]; Cebus monkey, adenosine IM versus other routes) was “less effective in blocking haloperidol-induced dystonia than when administered by other routes” and the “intensity of dystonia in animals displaying dystonia after combined treatment” value ([2]; Cebus monkey, adenosine IP + haloperidol, relative to absence of the adenosine) was “less intense than those seen in the absence of the adenosine”. For the same compound, the “prevention of development of dystonia (in words)” value ([2]; Cebus monkey, adenosine IP together with haloperidol PO) was “prevented the development of dystonia in a dose dependent fashion”, the “# showing dystonia/Total” value ([2]; adenosine 0.5 mpk IP, haloperidol 0.5 mpk PO) was 5/5 and the “# showing dystonia/Total” value ([2]; adenosine 1.5 mpk IP, haloperidol 0.5 mpk PO) was 4/6. The “# showing dystonia/Total” value ([2]; adenosine 5 mpk IP, haloperidol 0.05 mpk IM, +30 Min.) was 0/6, the “# showing dystonia/Total” value ([2]; adenosine 5 mpk IP, haloperidol 0.5 mpk PO) was 1/6 and the “# showing dystonia/Total” value ([2]; adenosine 20 mpk IP, haloperidol 0.05 mpk IM, +30 Min.) was 0/6. For the same compound, the “# showing dystonia/Total” value ([2]; adenosine 20 mpk IP, haloperidol 0.5 mpk PO) was 0/6, the “depression induced by the adenosine” value ([2]; monkey, in vivo) was “induced depression prior to the expected time of onset of the effects of haloperidol” and the “onset of action (depression)” value ([2]; monkey, in vivo, ip) was 5 to 10 min. For the same compound, the “prevention of dystonia (conclusion)” value ([2]; sensitized Cebus monkeys, adenosine administered prior to haloperidol) was “prevented the dystonia normally produced by haloperidol”, the “effect on development or severity of dystonias (in words)” value ([3]; Cebus monkey, adenosine together with haloperidol orally by capsule) was “did not appreciably affect the development or severity of dystonias” and the “animals with marked reduction in the severity of dystonia” value ([3]; adenosine 5 mg/kg PO + haloperidol 0.5 mg/kg in a solution by gavage) was 4 of 5. The “# showing dystonia/Total” value ([3]; adenosine 5 mpk PO capsule) was 5/6, the “prevention of dystonia, same capsule (conclusion)” value ([3]; adenosine and haloperidol in the same capsule) was “did not prevent dystonia induced by haloperidol” and the monkeys with dystonia ([3]; haloperidol 0.5 mg/kg with adenosine 5 mg/kg in a capsule) was 5 of 6. The “severity of dystonia, gavage (conclusion)” value ([3]; solution of adenosine and haloperidol by gavage) was “reduced severity of dystonia”.
